Tests used:
Details in all cases: 48 h
NOMO1 [1] = assay: AUC of viability dose-response curve (% viability x log10 dose units); higher = less sensitive
How it was run: (§1)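 Leukemia cells adapted to each medium (500 or 1000 cells/well, 1536-well plates) were exposed to library compounds in DMSO for 48 h at 37°C at 11 threefold doses, 47 μM to 0.79 nM. Luminescence by CellTiter-Glo One was normalised per plate to DMSO and cell-free wells, then fitted with a four-parameter log-logistic curve on log10 dose. Curves above full viability were scaled and quality-control failures removed before area under the curve was integrated by trapezoidal rule.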

P12-Ichikawa [2] = assay: as above
How it was run: as §1

SEM cells [3] = assay: as above
How it was run: as §1

NOMO1 [4] = assay: cell viability relative to DMSO control; higher = less cytotoxic
How it was run: (§2)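 Viability values are per-plate percentages of DMSO wells, with background from cell-free wells. Library compounds in DMSO were pin-dosed, in an 11-point threefold series from 47 μM to 0.79 nM, onto NOMO1 or SEM (500 cells/well) or P12-Ichikawa (1000 cells/well) leukemia cells in 1536-well plates (5 μl). Those cells had been adapted for at least four passages in each medium, and CellTiter-Glo One luminescence was read after 48 h at 37°C.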

P12-Ichikawa [5] = assay: as above
How it was run: as §2

SEM cells [6] = assay: as above
How it was run: as §2

COC[C@@H](NC(C)=O)C(=O)NCc1ccccc1
AUC of viability dose-response curve
Details	NOMO1 [1]	P12-Ichikawa [2]	SEM cells [3]
HPLM + 10% dialyzed FBS	457	453	466
RPMI 5 mM glucose + 10% FBS	467	465	449
RPMI 5 mM glucose + 10% dialyzed FBS	466	466	456

cell viability [%]
Details	NOMO1 [4]	P12-Ichikawa [5]	SEM cells [6]
HPLM + 10% dialyzed FBS, 0.000781 µM	112	117	117
HPLM + 10% dialyzed FBS, 0.00234 µM	119	101	116
HPLM + 10% dialyzed FBS, 0.00702 µM	117	107	118
HPLM + 10% dialyzed FBS, 0.0211 µM	132	118	118
HPLM + 10% dialyzed FBS, 0.0632 µM	116	118	112
HPLM + 10% dialyzed FBS, 0.19 µM	118	110	119
HPLM + 10% dialyzed FBS, 0.569 µM	114	110	124
HPLM + 10% dialyzed FBS, 1.71 µM	117	111	105
HPLM + 10% dialyzed FBS, 5.12 µM	107	113	100
HPLM + 10% dialyzed FBS, 15.4 µM	105	104	120
HPLM + 10% dialyzed FBS, 46.1 µM	86.7	12.8	111
RPMI 5 mM glucose + 10% FBS, 0.000781 µM	95.9	94.8	115
RPMI 5 mM glucose + 10% FBS, 0.00234 µM	110	100	111
RPMI 5 mM glucose + 10% FBS, 0.00702 µM	97	112	118
RPMI 5 mM glucose + 10% FBS, 0.0211 µM	102	112	123
RPMI 5 mM glucose + 10% FBS, 0.0632 µM	118	113	99.7
RPMI 5 mM glucose + 10% FBS, 0.19 µM	109	121	115
RPMI 5 mM glucose + 10% FBS, 0.569 µM	119	111	99.9
RPMI 5 mM glucose + 10% FBS, 1.71 µM	104	110	121
RPMI 5 mM glucose + 10% FBS, 5.12 µM	104	106	90.3
RPMI 5 mM glucose + 10% FBS, 15.4 µM	112	110	103
RPMI 5 mM glucose + 10% FBS, 46.1 µM	64.8	53.5	116
RPMI 5 mM glucose + 10% dialyzed FBS, 0.000781 µM	106	105	103
RPMI 5 mM glucose + 10% dialyzed FBS, 0.00234 µM	117	118	101
RPMI 5 mM glucose + 10% dialyzed FBS, 0.00702 µM	116	106	102
RPMI 5 mM glucose + 10% dialyzed FBS, 0.0211 µM	114	110	96.7
RPMI 5 mM glucose + 10% dialyzed FBS, 0.0632 µM	125	96.9	99.4
RPMI 5 mM glucose + 10% dialyzed FBS, 0.19 µM	115	109	131
RPMI 5 mM glucose + 10% dialyzed FBS, 0.569 µM	125	108	106
RPMI 5 mM glucose + 10% dialyzed FBS, 1.71 µM	124	116	105
RPMI 5 mM glucose + 10% dialyzed FBS, 5.12 µM	131	104	90
RPMI 5 mM glucose + 10% dialyzed FBS, 15.4 µM	118	109	86.7
RPMI 5 mM glucose + 10% dialyzed FBS, 46.1 µM	69.5	59.8	96.9

N[S+](=O)([O-])c1cc(Cl)c(Cl)c([S+](N)(=O)[O-])c1
AUC of viability dose-response curve
Details	NOMO1 [1]	P12-Ichikawa [2]	SEM cells [3]
HPLM + 10% dialyzed FBS	453	448	450
RPMI 5 mM glucose + 10% FBS	445	460	446
RPMI 5 mM glucose + 10% dialyzed FBS	458	473	449

cell viability [%]
Details	NOMO1 [4]	P12-Ichikawa [5]	SEM cells [6]
HPLM + 10% dialyzed FBS, 0.000781 µM	112	116	108
HPLM + 10% dialyzed FBS, 0.00234 µM	92.2	108	95.8
HPLM + 10% dialyzed FBS, 0.00702 µM	107	112	108
HPLM + 10% dialyzed FBS, 0.0211 µM	105	112	109
HPLM + 10% dialyzed FBS, 0.0632 µM	106	107	101
HPLM + 10% dialyzed FBS, 0.19 µM	104	105	90.5
HPLM + 10% dialyzed FBS, 0.569 µM	116	92.3	106
HPLM + 10% dialyzed FBS, 1.71 µM	98.3	102	104
HPLM + 10% dialyzed FBS, 5.12 µM	86.5	108	111
HPLM + 10% dialyzed FBS, 15.4 µM	82.6	101	39.1
HPLM + 10% dialyzed FBS, 46.1 µM	94.3	97.9	88.9
RPMI 5 mM glucose + 10% FBS, 0.000781 µM	112	100	85.2
RPMI 5 mM glucose + 10% FBS, 0.00234 µM	95.7	109	97
RPMI 5 mM glucose + 10% FBS, 0.00702 µM	96	109	111
RPMI 5 mM glucose + 10% FBS, 0.0211 µM	101	113	97.7
RPMI 5 mM glucose + 10% FBS, 0.0632 µM	104	100	119
RPMI 5 mM glucose + 10% FBS, 0.19 µM	93.7	103	112
RPMI 5 mM glucose + 10% FBS, 0.569 µM	99.3	106	116
RPMI 5 mM glucose + 10% FBS, 1.71 µM	95.3	97.3	98.2
RPMI 5 mM glucose + 10% FBS, 5.12 µM	100	106	116
RPMI 5 mM glucose + 10% FBS, 15.4 µM	89.3	99.8	35.5
RPMI 5 mM glucose + 10% FBS, 46.1 µM	87.5	100	84.6
RPMI 5 mM glucose + 10% dialyzed FBS, 0.000781 µM	97.9	97.5	102
RPMI 5 mM glucose + 10% dialyzed FBS, 0.00234 µM	99.1	105	86
RPMI 5 mM glucose + 10% dialyzed FBS, 0.00702 µM	110	97	98.8
RPMI 5 mM glucose + 10% dialyzed FBS, 0.0211 µM	97.5	101	101
RPMI 5 mM glucose + 10% dialyzed FBS, 0.0632 µM	108	104	106
RPMI 5 mM glucose + 10% dialyzed FBS, 0.19 µM	95.7	101	97.9
RPMI 5 mM glucose + 10% dialyzed FBS, 0.569 µM	98.5	105	99.5
RPMI 5 mM glucose + 10% dialyzed FBS, 1.71 µM	92.6	97.2	105
RPMI 5 mM glucose + 10% dialyzed FBS, 5.12 µM	91.7	101	107
RPMI 5 mM glucose + 10% dialyzed FBS, 15.4 µM	100	98	35.6
RPMI 5 mM glucose + 10% dialyzed FBS, 46.1 µM	85.8	89.8	87.1

Source: the supplement of paper PMC11451515
